This is an account of results in patent publication US8491946B2, “Elastase inhibitor” (Shiseido Company, Ltd., priority 2010, dated 2013).

The test deals with T1, Human leukocyte-derived elastase (Homo sapiens, UniProt P08246).
T1 construct: purchased Elastin Product Co., Inc. CK828; host or cells: human leukocytes (leukocyte-derived)
T1 sequence (P08246 30-247 limits assumed): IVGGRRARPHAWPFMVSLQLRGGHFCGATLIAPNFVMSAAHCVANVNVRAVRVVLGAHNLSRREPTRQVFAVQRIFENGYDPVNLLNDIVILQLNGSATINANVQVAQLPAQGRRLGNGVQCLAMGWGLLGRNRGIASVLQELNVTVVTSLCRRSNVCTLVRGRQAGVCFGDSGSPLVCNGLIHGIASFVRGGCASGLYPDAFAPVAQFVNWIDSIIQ
As to the kind of experiment: elastase inhibition assay with fluorogenic substrate. The conditions noted are these: FIG. 1; drug alone or raspberry extract combined with hydroxyproline; 60 minutes at 37° C. It counts as biochemical. Here is the method: A solution containing 0.1 M HEPES and 0.5 M NaCl (pH 7.5) was used as a reaction buffer. Oxysuccinyl-(Ala)2-Pro-Val-MCA (Peptide Institute Cat. No. 3153-v) was used for the elastase substrate and dissolved in DMSO to a concentration of 80 mM followed by diluting to 0.16 mM with the reaction buffer. Human leukocyte-derived elastase (Elastin Product Co., Inc. Cat No. CK828) was diluted to 5 μg/mL with the reaction buffer.
25 μL aliquots of the 0.16 mM elastase substrate were dispensed into the wells of a 96-well plate followed by the addition of 50 μL of each drug. Next, 25 μL of ice-cooled 5 μg/mL elastase were added and incubated for 60 minutes at 37° C. followed by measuring fluorescence at 460 nm at an exciting wavelength of 369 nm. Raspberry extract BG manufactured by Maruzen Pharmaceuticals was used for the raspberry extract, L-hydroxyproline manufactured by Kyowa Hakko was used for the hydroxyproline, and Biodyne EMPP™ manufactured by Arch Personal Care Products L.P. was used for the yeast extract. Raspberry extract BG is a 1,3-butyleneglycol (50% aqueous solution) extract of raspberry fruit.

“Also recorded” adds a separate entry of the source.

For `O=C(O)[C@@H]1C[C@@H](O)CN1` [hydroxyproline, L-hydroxyproline], the elastase inhibitory effects entry is “elastase inhibitory effects were not demonstrated; also recorded: does not demonstrate elastase inhibitory effects alone”.
